# Source: the supplement of paper PMC10307832
# Assays:
# Assay in all cases: relative viability (nuclei count vs DMSO), 5 days (fraction); higher = more cells survive
# PC-14 = system: PC-14
# Method in brief: (§1)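 For relative viability, nuclei counts in treated wells were divided by those in vehicle wells. Lung cancer cell lines had been pin-tool dosed in 1536-well plates the day after seeding and cultured for 5 days, then fixed and stained in one step (final 0.05% Triton X-100, 1% formaldehyde, 1 ug/ml Hoechst) and imaged at 4×. Doses were one drug alone or a fixed anchor-drug dose plus five library-drug doses (not always all listed) in √10 steps, and values are duplicate-plate medians.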
# NCI-H838 = system: NCI-H838
# Method in brief: as §1
# HCC-44 = system: HCC-44
# Method in brief: as §1
# NCI-H650 = system: NCI-H650
# Method in brief: as §1
# LC-2-ad = system: LC-2-ad
# Method in brief: as §1
# NCI-H1355 = system: NCI-H1355
# Method in brief: as §1
# NCI-H1915 = system: NCI-H1915
# Method in brief: as §1
# HCC-15 = system: HCC-15
# Method in brief: as §1
# NCI-H2347 = system: NCI-H2347
# Method in brief: as §1
# ABC-1 = system: ABC-1
# Method in brief: as §1
# LU99A = system: LU99A
# Method in brief: as §1
# NCI-H2023 = system: NCI-H2023
# Method in brief: as §1
# HOP-62 = system: HOP-62
# Method in brief: as §1
# NCI-H2085 = system: NCI-H2085
# Method in brief: as §1
# SW 1573 = system: SW 1573
# Method in brief: as §1
# NCI-H1651 = system: NCI-H1651
# Method in brief: as §1
# COR-L23 = system: COR-L23
# Method in brief: as §1
# NCI-H1993 = system: NCI-H1993
# Method in brief: as §1
# UMC-11 = system: UMC-11
# Method in brief: as §1
# NCI-H2126 = system: NCI-H2126
# Method in brief: as §1
# HARA = system: HARA
# Method in brief: as §1
# EPLC-272H = system: EPLC-272H
# Method in brief: as §1
smiles,measurement,setting,value
Cc1sc2c(c1C)C(c1ccc(Cl)cc1)=N[C@@H](CC(=O)OC(C)(C)C)c1nnc(C)n1-2 [JQ1] + C[C@]1(O)C[C@@H](c2nc(-c3ccc4ccc(-c5ccccc5)nc4c3)c3c(N)nccn32)C1 [Linsitinib] (partner 1 µM),relative viability,PC-14; first compound 0.04 µM,0.936
same,relative viability,PC-14; first compound 0.1265 µM,0.735
same,relative viability,PC-14; first compound 0.4 µM,0.779
same,relative viability,PC-14; first compound 1.265 µM,0.611
same,relative viability,PC-14; first compound 4 µM,0.356
same,relative viability,NCI-H838; first compound 0.04 µM,0.954
same,relative viability,NCI-H838; first compound 0.1265 µM,0.543
same,relative viability,NCI-H838; first compound 0.4 µM,0.74
same,relative viability,NCI-H838; first compound 1.265 µM,0.307
same,relative viability,NCI-H838; first compound 4 µM,0.229
same,relative viability,HCC-44; first compound 0.04 µM,0.704
same,relative viability,HCC-44; first compound 0.1265 µM,0.448
same,relative viability,HCC-44; first compound 0.4 µM,0.32
same,relative viability,HCC-44; first compound 1.265 µM,0.31
same,relative viability,HCC-44; first compound 4 µM,0.283
same,relative viability,NCI-H650; first compound 0.04 µM,0.913
same,relative viability,NCI-H650; first compound 0.1265 µM,0.507
same,relative viability,NCI-H650; first compound 0.4 µM,0.503
same,relative viability,NCI-H650; first compound 1.265 µM,0.291
same,relative viability,NCI-H650; first compound 4 µM,0.26
same,relative viability,LC-2-ad; first compound 0.04 µM,0.753
same,relative viability,LC-2-ad; first compound 0.1265 µM,0.773
same,relative viability,LC-2-ad; first compound 0.4 µM,0.463
same,relative viability,LC-2-ad; first compound 1.265 µM,0.253
same,relative viability,LC-2-ad; first compound 4 µM,0.265
same,relative viability,NCI-H1355; first compound 0.04 µM,0.813
same,relative viability,NCI-H1355; first compound 0.1265 µM,0.817
same,relative viability,NCI-H1355; first compound 0.4 µM,0.814
same,relative viability,NCI-H1355; first compound 1.265 µM,0.574
same,relative viability,NCI-H1355; first compound 4 µM,0.351
same,relative viability,NCI-H1915; first compound 0.04 µM,1.15
same,relative viability,NCI-H1915; first compound 0.1265 µM,0.966
same,relative viability,NCI-H1915; first compound 0.4 µM,1.08
same,relative viability,NCI-H1915; first compound 1.265 µM,0.652
same,relative viability,NCI-H1915; first compound 4 µM,0.383
same,relative viability,HCC-15; first compound 0.04 µM,0.732
same,relative viability,HCC-15; first compound 0.4 µM,0.769
same,relative viability,HCC-15; first compound 1.265 µM,0.542
same,relative viability,HCC-15; first compound 4 µM,0.476
same,relative viability,NCI-H2347; first compound 0.04 µM,0.934
same,relative viability,NCI-H2347; first compound 0.1265 µM,0.747
same,relative viability,NCI-H2347; first compound 0.4 µM,0.743
same,relative viability,NCI-H2347; first compound 1.265 µM,0.632
same,relative viability,NCI-H2347; first compound 4 µM,0.45
same,relative viability,ABC-1; first compound 0.04 µM,0.716
same,relative viability,ABC-1; first compound 0.1265 µM,0.772
same,relative viability,ABC-1; first compound 0.4 µM,0.564
same,relative viability,ABC-1; first compound 1.265 µM,0.356
same,relative viability,ABC-1; first compound 4 µM,0.275
same,relative viability,LU99A; first compound 0.04 µM,0.573
same,relative viability,LU99A; first compound 0.1265 µM,0.516
same,relative viability,LU99A; first compound 0.4 µM,0.325
same,relative viability,LU99A; first compound 1.265 µM,0.292
same,relative viability,LU99A; first compound 4 µM,0.202
same,relative viability,NCI-H2023; first compound 0.04 µM,0.653
same,relative viability,NCI-H2023; first compound 0.1265 µM,0.576
same,relative viability,NCI-H2023; first compound 0.4 µM,0.379
same,relative viability,NCI-H2023; first compound 1.265 µM,0.207
same,relative viability,NCI-H2023; first compound 4 µM,0.157
same,relative viability,HOP-62; first compound 0.04 µM,1.01
same,relative viability,HOP-62; first compound 0.1265 µM,0.869
same,relative viability,HOP-62; first compound 0.4 µM,0.694
same,relative viability,HOP-62; first compound 1.265 µM,0.11
same,relative viability,HOP-62; first compound 4 µM,0.106
same,relative viability,NCI-H2085; first compound 0.04 µM,0.99
same,relative viability,NCI-H2085; first compound 0.1265 µM,0.652
same,relative viability,NCI-H2085; first compound 0.4 µM,0.642
same,relative viability,NCI-H2085; first compound 1.265 µM,0.687
same,relative viability,NCI-H2085; first compound 4 µM,0.453
same,relative viability,SW 1573; first compound 0.04 µM,0.697
same,relative viability,SW 1573; first compound 0.1265 µM,0.789
same,relative viability,SW 1573; first compound 0.4 µM,0.711
same,relative viability,SW 1573; first compound 1.265 µM,0.339
same,relative viability,SW 1573; first compound 4 µM,0.323
same,relative viability,NCI-H1651; first compound 0.04 µM,0.776
same,relative viability,NCI-H1651; first compound 0.1265 µM,0.871
same,relative viability,NCI-H1651; first compound 0.4 µM,0.797
same,relative viability,NCI-H1651; first compound 1.265 µM,0.433
same,relative viability,NCI-H1651; first compound 4 µM,0.468
same,relative viability,COR-L23; first compound 0.04 µM,0.931
same,relative viability,COR-L23; first compound 0.1265 µM,0.74
same,relative viability,COR-L23; first compound 0.4 µM,0.818
same,relative viability,COR-L23; first compound 1.265 µM,0.226
same,relative viability,COR-L23; first compound 4 µM,0.172
same,relative viability,NCI-H1993; first compound 0.04 µM,0.729
same,relative viability,NCI-H1993; first compound 0.1265 µM,0.855
same,relative viability,NCI-H1993; first compound 0.4 µM,0.809
same,relative viability,NCI-H1993; first compound 1.265 µM,0.829
same,relative viability,NCI-H1993; first compound 4 µM,0.736
same,relative viability,UMC-11; first compound 0.04 µM,0.866
same,relative viability,UMC-11; first compound 0.1265 µM,0.793
same,relative viability,UMC-11; first compound 0.4 µM,0.321
same,relative viability,UMC-11; first compound 1.265 µM,0.237
same,relative viability,UMC-11; first compound 4 µM,0.203
same,relative viability,NCI-H2126; first compound 0.04 µM,0.725
same,relative viability,NCI-H2126; first compound 0.1265 µM,1.52
same,relative viability,NCI-H2126; first compound 0.4 µM,0.651
same,relative viability,NCI-H2126; first compound 1.265 µM,0.559
same,relative viability,NCI-H2126; first compound 4 µM,0.432
same,relative viability,HARA; first compound 0.04 µM,0.902
same,relative viability,HARA; first compound 0.1265 µM,0.624
same,relative viability,HARA; first compound 0.4 µM,0.399
same,relative viability,HARA; first compound 1.265 µM,0.205
same,relative viability,HARA; first compound 4 µM,0.163
same,relative viability,EPLC-272H; first compound 0.04 µM,1.14
same,relative viability,EPLC-272H; first compound 0.1265 µM,1.07
same,relative viability,EPLC-272H; first compound 0.4 µM,1.12
same,relative viability,EPLC-272H; first compound 1.265 µM,0.502
same,relative viability,EPLC-272H; first compound 4 µM,0.418
